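Dose response: 5 concentrations. Exposure: 48 h. Format: 96-well plates. Endpoint: linear interpolation; highest concentration if not reached. TGI is the concentration that stops growth completely.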

The record followed here is PubChem BioAssay (NCI).

Some test systems named below: DU-145 prostate; MOLT-4 leukemia; CCRF-CEM leukemia; UACC-257 melanoma; KM12 colon; SF-268 CNS; A498 renal; NCI-H23 lung; NCI/ADR-RES ovarian; CAKI-1 renal.
Common to all, as to assay: growth of human tumour cells (NCI), 48 h

On to `O=C(NCCCCNCCCNC(=O)OCc1ccccc1)OCc1ccccc1`, for which the TGI was over 100 µM in the experiment with DU-145 prostate; 73.6 µM in the experiment on MOLT-4 leukemia; 82.1 µM with CCRF-CEM leukemia; 41.3 µM in the experiment on UACC-257 melanoma; 98.5 µM in the experiment with KM12 colon; over 100 µM in the experiment with SF-268 CNS. Further, the results for the TGI in the experiment on A498 renal, with NCI-H23 lung and with NCI/ADR-RES ovarian were 36.8 µM, over 100 µM and over 100 µM, respectively.

`COC(=O)[C@@H]1O[C@]12[C@@H](CO[Si](C)(C)C(C)(C)C)O[C@@H](n1cc(C)c(=O)[nH]c1=O)[C@@H]2O[Si](C)(C)C(C)(C)C`: the TGI was 39 µM in the experiment with DU-145 prostate; 7.42 µM in the experiment with MOLT-4 leukemia; 4.79 µM in the experiment on CCRF-CEM leukemia; 75.2 µM in the experiment with UACC-257 melanoma; over 100 µM in the experiment on KM12 colon; 70 µM with CAKI-1 renal. The TGI in the experiment with SF-268 CNS came out at 38 µM; in the experiment on NCI-H23 lung it was 40.5 µM; in the experiment on NCI/ADR-RES ovarian, 33.8 µM.

Take `CCOC(=O)N1C(=S)C(C(=O)OC)(C(=O)OC)N=C1C`: the TGI in the experiment with DU-145 prostate, in the experiment on MOLT-4 leukemia, with CCRF-CEM leukemia, with UACC-257 melanoma, in the experiment on KM12 colon and in the experiment on CAKI-1 renal was over 100 µM each time. For the same compound, the TGI in the experiment with A498 renal, in the experiment on NCI-H23 lung and with NCI/ADR-RES ovarian was over 100 µM in each case.

Turning to `O=C(NCc1cccnc1)C(=O)NCc1cccnc1`, the TGI with DU-145 prostate, in the experiment on MOLT-4 leukemia, in the experiment on UACC-257 melanoma, with KM12 colon, in the experiment on CAKI-1 renal and with SF-268 CNS was over 100 µM throughout. Besides, the TGI in the experiment on A498 renal, with NCI-H23 lung and in the experiment with NCI/ADR-RES ovarian was over 100 µM throughout.

Turning to `CC(C)c1nccn1Cc1ccc(Cl)cc1Cl`, the TGI with DU-145 prostate is over 100 µM; with UACC-257 melanoma, 95.9 µM; in the experiment on KM12 colon, over 100 µM; in the experiment on CAKI-1 renal, over 100 µM; in the experiment on SF-268 CNS, over 100 µM; in the experiment with A498 renal, over 100 µM. For the same compound, the TGI with NCI-H23 lung and in the experiment with NCI/ADR-RES ovarian was over 100 µM each time.

Take `CC1(C)Oc2ccc3c(=O)c4ccccc4oc3c2C1C(=O)O` (stereo not given): the TGI with DU-145 prostate, with MOLT-4 leukemia, in the experiment with CCRF-CEM leukemia, in the experiment on UACC-257 melanoma, in the experiment on CAKI-1 renal and in the experiment on SF-268 CNS was over 100 µM each time. In addition, the TGI in the experiment on A498 renal, in the experiment with NCI-H23 lung and in the experiment on NCI/ADR-RES ovarian was over 100 µM throughout.

With `CC1(C)CC2(C)OC(=N)C1(C#N)C2(C#N)C#N` (stereo not given), the TGI was 27.7 µM in the experiment with DU-145 prostate; 38.1 µM with MOLT-4 leukemia; 19.9 µM in the experiment on UACC-257 melanoma; 29.4 µM with KM12 colon; 12.3 µM in the experiment with CAKI-1 renal; 33.8 µM in the experiment with SF-268 CNS. Moreover, the TGI in the experiment on A498 renal was found to be 28.7 µM; in the experiment on NCI-H23 lung, 21.4 µM; with NCI/ADR-RES ovarian, 29.5 µM.

As for `Oc1ccc2ccccc2c1OCc1nnc(CCCCCCCCc2nnc(COc3c(O)ccc4ccccc34)o2)o1`, the TGI with DU-145 prostate, in the experiment with MOLT-4 leukemia, in the experiment with UACC-257 melanoma, in the experiment with KM12 colon, in the experiment with CAKI-1 renal and in the experiment on SF-268 CNS was over 100 µM throughout. In addition, the TGI with A498 renal, in the experiment with NCI-H23 lung and in the experiment with NCI/ADR-RES ovarian was over 100 µM in each case.

Consider `O=C(C=P(c1ccccc1)(c1ccccc1)c1ccccc1)c1ccc(-c2ccc(F)cc2F)cc1`, for which the TGI with DU-145 prostate was found to be 16.2 µM; with CCRF-CEM leukemia, 7.06 µM; in the experiment with UACC-257 melanoma it was 8.57 µM; in the experiment on KM12 colon, 13.8 µM; in the experiment on CAKI-1 renal it was 5.55 µM; with SF-268 CNS, 15.5 µM. Moreover, the TGI in the experiment on A498 renal came to 7.41 µM; with NCI-H23 lung, 12.2 µM; in the experiment with NCI/ADR-RES ovarian it was 13.2 µM.

`Cc1cc(C)c2c(c1)CC1(Cc3c(C)cc(C)cc3C1=O)C2=O` (stereo not given): the TGI in the experiment with DU-145 prostate, with MOLT-4 leukemia, in the experiment on CCRF-CEM leukemia, with UACC-257 melanoma, in the experiment on KM12 colon and in the experiment on CAKI-1 renal was over 100 µM throughout. For the same compound, the TGI in the experiment on SF-268 CNS, with A498 renal and in the experiment on NCI/ADR-RES ovarian was over 100 µM throughout.

Consider `COc1ccc(N2C(=O)/C(=C/c3ccc(N(CCC#N)CCC#N)cc3)N=C2c2ccccc2)c(OC)c1`, for which the TGI in the experiment on DU-145 prostate was over 100 µM; in the experiment on MOLT-4 leukemia, over 100 µM; with CCRF-CEM leukemia, 74.9 µM; in the experiment on UACC-257 melanoma it was over 100 µM; in the experiment with KM12 colon, over 100 µM; in the experiment with CAKI-1 renal, over 100 µM. The TGI in the experiment on SF-268 CNS, in the experiment with NCI-H23 lung and in the experiment with NCI/ADR-RES ovarian was over 100 µM in each case.

Turning to `C=C(C(=O)OC)[C@H]1CC/C(C)=C/CC/C(C)=C/CC[C@@]2(C)O[C@@H]2C1`, the TGI in the experiment on DU-145 prostate was found to be 58.2 µM; in the experiment on MOLT-4 leukemia, 35.5 µM; with CCRF-CEM leukemia, 30 µM; with UACC-257 melanoma, 62.3 µM; with KM12 colon, 37.6 µM; with CAKI-1 renal, 28.1 µM. The figures for the TGI in the experiment on A498 renal, in the experiment on NCI-H23 lung and with NCI/ADR-RES ovarian were 62.2 µM, 68.1 µM and 52.1 µM, respectively.

Regarding `CSC1NNC2(C(=O)N1)c1ccccc1-c1ccccc12` (stereo not given), the TGI with DU-145 prostate, in the experiment on MOLT-4 leukemia, in the experiment with CCRF-CEM leukemia, in the experiment with UACC-257 melanoma, in the experiment with KM12 colon and with CAKI-1 renal was over 10 µM each time. Further, the TGI in the experiment with SF-268 CNS, in the experiment on NCI-H23 lung and in the experiment with NCI/ADR-RES ovarian was over 10 µM in each case.

For `COc1cc(S(=O)(=O)N/N=C/c2cc(Br)c(O)c(OC)c2)c(OC)cc1NC(C)=O`, the TGI was over 100 µM in the experiment on DU-145 prostate; over 100 µM with MOLT-4 leukemia; 56.5 µM in the experiment with CCRF-CEM leukemia; over 100 µM in the experiment with UACC-257 melanoma; over 100 µM in the experiment on KM12 colon; over 100 µM with CAKI-1 renal. The TGI in the experiment with A498 renal, in the experiment on NCI-H23 lung and in the experiment with NCI/ADR-RES ovarian was over 100 µM each time.
